Several values for one entry are separate records, joined by “and”; a condition that tells them apart may be missing. Equal entries are not always repeated. Where two headings read alike, the source gives them in different places.
Tests used:
[1] = Solubility in AlphaMEM + 5% FBS, pH 7.4; conditions: culture medium (AlphaMEM + 5% FBS), pH 7.4, plasma or biological fluid, thermodynamic from solid
FaDu cells = assay: IC50 assay (inhibition of proliferation, 4 h exposure, SRB); type: cell-based
SiHa cells = assay: as above
Experimental: Cells were seeded in 96-well plates (SiHa or FaDu 1500 cells/well, UT-SCC-74B 800 cells/well) in 100 μL. After incubation for 2 h, the drugs were added in 50 μL of the same titrated medium at 3× the final concentration to duplicate the wells. After a further 4 h the plates were checked for drug precipitation using a phase contrast microscope, then drugs were removed by aspirating and washing with the standard (pH 7.4) medium, then aspirating again and adding 150 μL of the medium. Cultures were then grown for 5 days before staining with sulphorhodamine B and measuring absorbance, with the estimation of IC50 values using 4-parameter logistic regression, as previously carried out.
The medium and plasticware was equilibrated in the chamber for 3 days prior to use. In the anoxia experiments, FaDu cells were plated in poly-L-lysine coated plates (Corning Cat # 356461) to improve attachment.
Cells were subsequently grown under standard cell culture conditions (oxia, pHe 7.4) for 5 days before staining with sulforhodamine B (SRB). […] (B) SN30000 (2). (C) BTO acid 4a. Values are means and errors are ranges for duplicate cultures in a single experiment. Fitted curves are 4-parameter logistic regressions. PCR = pH cytotoxicity ratio. ACR = anoxia cytotoxicity ratio. TMR = tumor microenvironment ratio.

[2] = One-electron reduction potentials by pulse radiolysis; type: physicochemical; conditions: pH 7.0, equilibrium with redox indicator shown in square brackets
Experimental: One-electron reduction potentials (E^0′) were determined from the redox equilibria with methylviologen, MV^2+, (E^0′ = […], [34]), dimethyldiquat, V21^2+, (E^0′ = […], [35]), or triquat, TQ^2+, (E^0′ = −548 ± 7 mV [34]). […] Substituting the 3-alkanoic sidechain with the 3-aminoalkanoic sidechain on the BTO 1,4-dioxide lowers the E^0′, as does the addition of the cyclopentane ring. The combined effect is seen for 10a, where the E^0′ value is −565 mV, which is expected to be too low for significant bioreduction under hypoxia.
Time-resolved optical absorption and kinetic studies were carried out using the University of Auckland’s 4 MeV linear accelerator, which has been previously described. The one-electron reduction potentials of the compounds (A) and couple E^0′(A/A^−), versus normal hydrogen electrode, were determined at pH 7.0 (2.5 mM phosphate) by establishing redox equilibria within 50 μs between three mixtures of one-electron reduced A and the viologen reference compounds, MV^2+, TQ^2+ and V21^2+. The determined equilibrium constants were used to calculate the ΔE values using the Nernst equation, correcting for ionic strength effects, as described in the literature.

[3] = tested on: reduction of BTOs to their N-1-oxides by SiHa cells; assay: WST-1 inhibition of anoxic reduction of BTOs to N-1-oxides; type: cell-based
Description: One possibility for this is that the BTO acids are reduced to the 1-oxides by an extracellular one-electron reductase. To test this, we evaluated whether the cell-excluded disulfonic acid tetrazolium salt WST-1 could compete with BTO acids for one-electron reduction. WST-1 is a known electron acceptor for one-electron reduction by the plasma membrane electron transport system (PMET) and is widely used as a cell viability assay, although the latter application uses 1-methoxyphenazine methylsulphate (mPMS) as an electron transfer intermediate. Given the possibility that mPMS could cross the plasma membrane itself, we used WST-1 without mPMS to ensure that the electron donor is a cell surface reductase.
The log-phase cells were trypsinized and the pellets were transferred to the anaerobic chamber and resuspended in equilibrated αMEM + 5% FBS at pH 7.4 and plated (10^5 cells in 100 μL/well for experiments with WST1, otherwise 2 × 10^5 cells/well). After incubation at 37 °C for 2 h, 20 μL was replaced with the anoxic medium containing 5× the final concentrations of test compounds with or without WST-1 (1 mM, Toronto Research Chemicals). A cell-free medium used as a control to check for reduction in the anoxic medium. Cultures were mixed gently, incubated for a further 2 h, then the extracellular medium was removed and 200 μL of ice-cold MeOH was added to the monolayers. The MeOH extract was transferred to the medium sample (thus combining the intracellular and extracellular samples). The pooled samples (combining the intracellular and extracellular samples) were removed from anoxic chamber, then centrifuged (13000g, 30 s) and frozen for subsequent HPLC analysis. Cell-free wells were used for single-point calibration of the parent compounds and 1-oxides in each experiment.
Figure 8 Inhibition of reduction of BTOs to their N-1-oxides by the cell-excluded electron acceptor WST-1. SiHa cells were seeded in 96-well plates at 10^6 cells/mL and exposed to the compounds (50 μM) with the indicated concentrations of WST-1 under anoxia for 2 h. Total (pooled intracellular and extracellular) amounts of the 1-oxide metabolites were determined by HPLC. Values are mean and SEM for two experiments with triplicate cultures at each concentration.

[4] = Homo sapiens, 4 h, pHe 6.5, 4 h, anoxic, read-out: Anoxic IC50
[5] = Homo sapiens, 4 h, pHe 6.5, 4 h, oxic, read-out: Oxic IC50
[6] = Homo sapiens, 4 h, pHe 7.4, 4 h, anoxic, read-out: Anoxic IC50
[7] = Homo sapiens, 4 h, pHe 7.4, 4 h, oxic, read-out: Oxic IC50
[8] = Homo sapiens, SiHa, 4 h, read-out: Anoxic IC50, SiHa, pHe 6.5, 4 h, anoxic
[9] = Homo sapiens, SiHa, 4 h, read-out: Anoxic IC50, SiHa, pHe 7.4, 4 h, anoxic
[10] = Homo sapiens, SiHa, 4 h, read-out: Oxic IC50, SiHa, pHe 6.5, 4 h, oxic
[11] = Homo sapiens, SiHa, 4 h, read-out: Oxic IC50, SiHa, pHe 7.4, 4 h, oxic

solubility [1] [mM]	E^0′ one-electron reduction potential [2]	Structure (SMILES)	TMR (oxic IC50 pHe 7.4/anoxic IC50 pHe 6.5) (FaDu cells)	IC50 (FaDu cells; [4]) [µM]	IC50 (FaDu cells; [5]) [µM]	IC50 (FaDu cells; [6]) [µM]	IC50 (FaDu cells; [7]) [µM]	PCR Anoxic (IC50 at pHe 7.4/IC50 at pHe 6.5) (FaDu cells; anoxic)	ACR (oxic IC50/anoxic IC50) (FaDu cells; pHe 6.5)	ACR (oxic IC50/anoxic IC50) (FaDu cells; pHe 7.4)	IC50 (SiHa cells; [8]) [µM]	IC50 (SiHa cells; [9]) [µM]	IC50 (SiHa cells; [10]) [µM]	IC50 (SiHa cells; [11]) [µM]	TMR (overall TME ratio = oxic IC50 pHe 7.4/anoxic IC50 pHe 6.5) (SiHa cells; SiHa)	PCR Anoxic (IC50 at pHe 7.4/IC50 at pHe 6.5) (SiHa cells; SiHa, anoxic)	ACR (anoxic cytotoxicity ratio = oxic IC50/anoxic IC50) (SiHa cells; SiHa, pHe 6.5)	ACR (anoxic cytotoxicity ratio = oxic IC50/anoxic IC50) (SiHa cells; SiHa, pHe 7.4)	other results
8.7	−470 ± 9 [MV^2+] mV	O=C(O)CNc1n[n+]([O-])c2ccccc2[n+]1[O-] [Compound 8a, 3-((Carboxymethyl)amino)benzo[e][1,2,4]triazine 1,4-dioxide]	>6.9	290 ± 48	1450 ± 268	289 ± 25	> 2000	1.0 ± 0.19	4.99 ± 1.24	>6.9	135 ± 18	154 ± 26	> 2000	> 2000	>15	1.14 ± 0.25	>15	>13	PCR oxic (IC50 at pHe 7.4/IC50 at pHe 6.5) (FaDu cells; oxic): >1
0.07		COC(=O)CNc1n[n+]([O-])c2cc3c(cc2[n+]1[O-])CCC3 [Compound 9b, 3-((2-Methoxy-2-oxoethyl)amino)-7,8-dihydro-6H-indeno[5,6-e][1,2,4]triazine 1,4-dioxide]	>1.4	37.7 ± 8	> 53	46.9 ± 3	> 53	1.24 ± 0.28	>1	>1	10.9 ± 1.42	8.08 ± 2.23	42.2 ± 5.7	> 53	>4.6	0.74 ± 0.23	3.87 ±0.73	>6.5	melting point: 171 to 178 °C; PCR oxic (IC50 at pHe 7.4/IC50 at pHe 6.5) (SiHa cells; SiHa, oxic): >1.2
	−565 mV and −565 ± 8 [TQ^2+] mV	O=C(O)CCCNc1n[n+]([O-])c2ccccc2[n+]1[O-] [Compound 10a, 3-((3-Carboxypropyl)amino)benzo[e][1,2,4]triazine 1,4-Dioxide]	>4					1.58 ± 0.37	>4	>3					>4.8	>4.8			IC50 (FaDu cells; pHe 6.5, 4 h, anoxic, read-out: Anoxic IC50): 543 ± 126 µM; IC50 (FaDu cells; pHe 6.5, 4 h, oxic, read-out: Oxic IC50): > 2000 µM; IC50 (FaDu cells; pHe 7.4, 4 h, anoxic, read-out: Anoxic IC50): 856 ± 22 µM; IC50 (FaDu cells; pHe 7.4, 4 h, oxic, read-out: Oxic IC50): > 2000 µM; ACR (anoxic cytotoxicity ratio = oxic IC50/anoxic IC50) (SiHa cells): >4.8; IC50 (SiHa cells; read-out: Anoxic IC50, SiHa, pHe 6.5, 4 h, anoxic): 416 ± 57 µM; IC50 (SiHa cells; read-out: Anoxic IC50, SiHa, pHe 7.4, 4 h, anoxic): > 2000 µM; IC50 (SiHa cells; read-out: Oxic IC50, SiHa, pHe 6.5, 4 h, oxic): > 2000 µM; IC50 (SiHa cells; read-out: Oxic IC50, SiHa, pHe 7.4, 4 h, oxic): > 2000 µM
		O=[N+]([O-])c1ccc(-[n+]2nc(-c3ccc(S(=O)(=O)O)cc3S(=O)(=O)[O-])nn2-c2ccc(I)cc2)cc1 [WST-1]																	IC50 ([3]; read-out: IC50 for inhibition of anoxic reduction of 4a to N-1-oxide 15a, substrate 4a 50 μM, anoxia 2 h): 7.05 µM; IC50 ([3]; read-out: IC50 for inhibition of anoxic reduction of 7a to N-1-oxide 15d, substrate 7a 50 μM, anoxia 2 h): 14.3 µM; IC50 ([3]; substrate SN30000 50 μM, anoxia 2 h, read-out: IC50 for inhibition of metabolic reduction of SN30000): > 1000 µM; IC50 ([3]; substrate TPZ 50 μM, anoxia 2 h, read-out: IC50 for inhibition of metabolic reduction of TPZ): > 1000 µM

— article PMC6680510, “Benzotriazine Di-Oxide Prodrugs for Exploiting Hypoxia and Low Extracellular pH in Tumors” (Molecules, 2019)
